Results published in US12427160B2, “Use of cannabinoids in the treatment of epilepsy” (Jazz Pharmaceuticals Research UK Limited, priority 2014, dated 2025).

Key:
[1] = tested on: children and young adults with severe, childhood onset treatment-resistant epilepsy (TRE); assay: Expanded access compassionate use program: 50% responders after 12 weeks of CBD added to baseline AED; format: in vivo, human; settings: 12 weeks of treatment
[2] = Solubility of the drug substance in water; format: physicochemical
Text: Sesame oil was selected as an excipient to solubilize the drug substance.

seizures [3] = settings: 200 mg/day of pure CBD, four adult patients; cited from earlier work
generalized epilepsy = settings: eight adult patients with generalized epilepsy; cited from earlier work
seizures in mice = settings: after pro-convulsant drugs or an electric current; cited from earlier work
seizures [4] = settings: 200 mg/day of pure CBD, open label, twelve institutionalized adult patients; cited from earlier work
Lennox-Gastaut syndrome = settings: CBD in an oily solution, a child with Lennox-Gastaut syndrome; cited from earlier work
[5] = in vivo; cited from earlier work

Row | SMILES | <50% reduction in seizures, proportion of patients, absence seizures ([1]; absence seizures (n = 28)) [%] | >50% reduction in seizures, proportion of patients, absence seizures ([1]; absence seizures (n = 28)) [%] | <50% reduction in seizures, proportion of patients, clonic seizures ([1]; clonic seizures (n = 8)) [%] | >50% reduction in seizures, proportion of patients, clonic seizures ([1]; clonic seizures (n = 8)) [%] | <50% reduction in seizures, proportion of patients, myoclonic seizures ([1]; myoclonic seizures (n = 30)) [%] | >50% reduction in seizures, proportion of patients, myoclonic seizures ([1]; myoclonic seizures (n = 30)) [%] | <50% reduction in seizures, proportion of patients, tonic seizures ([1]; tonic seizures (n = 45)) [%] | >50% reduction in seizures, proportion of patients, tonic seizures ([1]; tonic seizures (n = 45)) [%] | <50% reduction in seizures, proportion of patients, tonic-clonic seizures ([1]; tonic-clonic seizures (n = 65)) [%] | >50% reduction in seizures, proportion of patients, tonic-clonic seizures ([1]; tonic-clonic seizures (n = 65)) [%] | <50% reduction in seizures, proportion of patients, total seizures ([1]; total seizures (n = 137)) | solubility in water [2] | seizure freedom / seizure frequency (seizures [3]) | reduction of seizures (generalized epilepsy) | prevention of seizures (seizures in mice) | control of seizures (seizures [4]) | seizure frequency (Lennox-Gastaut syndrome) | pro-convulsant effect [5]
1 | C=C(C)[C@@H]1CCC(C)=C[C@H]1c1c(O)cc(CCCCC)cc1O [CBD, Cannabidiol] | 36 | 64 | 50 | 50 | 57 | 43 | 51 | 49 | 37 | 43 | 54% (n = 74) | insoluble in water | two of the four patients became seizure free | marked reduction of seizures in 4 of the patients | able to prevent seizures in mice | ineffective in controlling seizures | improvement in seizure frequency | –
2 | CCCCCc1cc(O)c2c(c1)OC(C)(C)[C@@H]1CCC(C)=C[C@@H]21 [THC, Tetrahydrocannabinol] | – | – | – | – | – | – | – | – | – | – | – | – | – | – | – | – | – | pro-convulsant
